Assay results from patent US7041290B2, “Molecules and methods for inhibiting shedding of KIM-1” (Biogen Idec MA Inc., priority 2001, dated 2006).

What was measured:
[1] = test system: Renal carcinoma cells 769-P; experiment: Cell viability with the mitochondria dye MTT; assay type: cell-based, human; conditions: end of the 28h-culture period, 0.5 to 32 μm
Experimental: (§1) Stock solutions of BB-94 and GM6001 were maintained in DMS0 at a concentration of 70 mM for BB-94 and 2.5 mM for GM6001. Compounds were diluted directly into fresh medium to concentrations ranging from 0.5 μm to 32 μm. Renal carcinoma cells 769-P were grown in RPMI medium supplemented with 10% fetal bovine serum, 10 mM HEPES, and 1 mM sodium pyruvate, and in the presence of various concentrations of BB-94 and GM6001 for 28 hours. […] The amount of soluble KIM-1 released into the extracellular milieu during the 28h-period was measured by ELISA (FIG. 5).

[2] = test system: shedding of KIM-1, renal carcinoma cells 769-P; experiment: Shedding of KIM-1 in 769-P cell culture, soluble KIM-1 by ELISA; assay type: cell-based, human; conditions: 769-P cells, 28 hours; for inhibition of KIM-1 shedding: 32 μM
Experimental: BB-94 (batismatat) and GM6001 (Ilomastat), are two broad spectrum hydroxamic acid-based zinc metalloproteinase inhibitors which inhibit several matrix metalloproteinases (MMP) (20). BB-94 is also a potent inhibitor of TACE (TNF alpha converting enzyme) (18). The activity of these two inhibitors on the shedding of KIM-1 in cell culture was examined.
as §1

IC50 [2] | IC50 ([2]; Homo sapiens) | Structure (SMILES) | cytotoxicity (cell viability, MTT) [1] | inhibition of KIM-1 shedding [2]
~1000 nM |  | CNC(=O)[C@H](Cc1ccccc1)NC(=O)[C@H](CC(C)C)[C@H](CSc1cccs1)C(=O)NO [BB-94, batismatat] | absence of cytotoxicity | complete inhibition
 | ~4000 nM | CNC(=O)[C@H](Cc1c[nH]c2ccccc12)NC(=O)[C@@H](CC(=O)NO)CC(C)C [GM6001, Ilomastat] | absence of cytotoxicity | complete inhibition
